Assay results reported in US10597388B2, “Pyridazinone herbicides” (FMC CORPORATION, priority 2014, dated 2020).

Key:
Test in all cases: Test D controlled growth environment herbicide test, pre- and postemergence
Assay type in all cases: in vivo
[1] = system: chamomile (scentless chamomile, Matricaria inodora)
Method in brief: (§1)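 Species sown in silt loam and sprayed preemergence, or grown in peat-based medium to 2–18 cm (1- to 4-leaf stage) and sprayed postemergence, with compounds in non-phytotoxic solvent plus surfactant. Visual injury scored versus controls after 14–21 d in a controlled environment, 0 (no effect) to 100 (complete control).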

[2] = system: field poppy (Papaver rhoeas)
Method in brief: as §1

[3] = system: barley, spring (spring barley, Hordeum vulgare)
Method in brief: as §1

[4] = system: foxtail, green (green foxtail, Setaria viridis)
Method in brief: as §1

kochia (Kochia scoparia) = system: kochia (Kochia scoparia)
Method in brief: as §1

[5] = system: canarygrass (Phalaris minor)
Method in brief: as §1

[6] = system: lambsquarters (Chenopodium album)
Method in brief: as §1

[7] = system: deadnettle (henbit deadnettle, Lamium amplexicaule)
Method in brief: as §1

[8] = system: bromegrass, downy (downy bromegrass, Bromus tectorum)
Method in brief: as §1

[9] = system: oilseed rape (Brassica napus)
Method in brief: as §1

[10] = system: wheat, spring (spring wheat, Triticum aestivum)
Method in brief: as §1

[11] = system: blackgrass (Alopecurus myosuroides)
Method in brief: as §1

[12] = system: chickweed (common chickweed, Stellaria media)
Method in brief: as §1

[13] = system: galium (catchweed bedstraw, Galium aparine)
Method in brief: as §1

[14] = Postemergence, 31 g ai/ha, scale 0 to 100 (0 no effect, 100 complete control)
[15] = Postemergence, 125 g ai/ha, visual rating on scale 0 (no effect) to 100 (complete control), 14 to 21 d
[16] = Postemergence, 250 g ai/ha, scale 0 to 100 (0 no effect, 100 complete control)
[17] = Preemergence, 62 g ai/ha, scale 0 to 100 (0 no effect, 100 complete control)
[18] = Preemergence, 125 g ai/ha, scale 0 to 100 (0 no effect, 100 complete control)
[19] = Preemergence, 250 g ai/ha, scale 0 to 100, 0 no effect, 100 complete control
[20] = postemergence, 62 g ai/ha, scale 0 to 100, 0 no effect, 100 complete control

SMILES: Cc1ccc2sc(C)c(-c3c(OC(=O)OC(C)C)c(C)nn(C)c3=O)c2c1 [Compound 66]
- Chamomile plant response rating [1, 14]: 85
- Plant response rating, Chamomile [1, 15]: 100
- Plant response rating, Chamomile [1, 16]: 100
- Plant response rating (scale of 0 to 100), Chamomile ([1]; Preemergence, 31 g ai/ha): 90
- Plant response rating, Chamomile [1, 17]: 100
- Plant response rating, Chamomile [1, 18]: 100
- Plant response rating, Chamomile [1, 19]: 100
- Plant response rating, Chamomile [1, 20]: 90
- Field Poppy plant response rating [2, 14]: 70
- Plant response rating, Field Poppy [2, 15]: 95
- Plant response rating, Field Poppy [2, 16]: 95
- Plant response rating (scale of 0 to 100), Field Poppy ([2]; Preemergence, 31 g ai/ha): 100
- Plant response rating, Field Poppy [2, 17]: 100
- Plant response rating, Field Poppy [2, 18]: 100
- Plant response rating, Field Poppy [2, 19]: 100
- Plant response rating, Field Poppy [2, 20]: 85
- Barley, Spring plant response rating [3, 14]: 0
- Plant response rating, Barley, Spring [3, 15]: 5
- Plant response rating, Barley, Spring [3, 16]: 15
- Plant response rating (scale of 0 to 100), Barley, Spring ([3]; Preemergence, 31 g ai/ha): 0
- Plant response rating, Barley, Spring [3, 17]: 0
- Plant response rating, Barley, Spring [3, 19]: 10
- Plant response rating, Barley, Spring [3, 20]: 0
- Foxtail, Green plant response rating [4, 14]: 75
- Plant response rating, Foxtail, Green [4, 15]: 90
- Plant response rating, Foxtail, Green [4, 16]: 98
- Plant response rating (scale of 0 to 100), Foxtail, Green ([4]; Preemergence, 31 g ai/ha): 15
- Plant response rating, Foxtail, Green [4, 17]: 35
- Plant response rating, Foxtail, Green [4, 18]: 65
- Plant response rating, Foxtail, Green [4, 19]: 70
- Plant response rating, Foxtail, Green [4, 20]: 80
- Kochia plant response rating (kochia (Kochia scoparia); [14]): 85
- Plant response rating, Kochia (kochia (Kochia scoparia); [15]): 100
- Plant response rating, Kochia (kochia (Kochia scoparia); [16]): 100
- Plant response rating (scale of 0 to 100), Kochia (kochia (Kochia scoparia); Preemergence, 31 g ai/ha): 0
- Plant response rating, Kochia (kochia (Kochia scoparia); [17]): 15
- Plant response rating, Kochia (kochia (Kochia scoparia); [18]): 75
- Plant response rating, Kochia (kochia (Kochia scoparia); [19]): 85
- Plant response rating, Kochia (kochia (Kochia scoparia); [20]): 95
- Canarygrass plant response rating [5, 14]: 55
- Plant response rating, Canarygrass [5, 15]: 70
- Plant response rating, Canarygrass [5, 16]: 85
- Plant response rating (scale of 0 to 100), Canarygrass ([5]; Preemergence, 31 g ai/ha): 25
- Plant response rating, Canarygrass [5, 17]: 80
- Plant response rating, Canarygrass [5, 18]: 85
- Plant response rating, Canarygrass [5, 19]: 95
- Plant response rating, Canarygrass [5, 20]: 65
- Lambsquarters plant response rating [6, 14]: 95
- Plant response rating, Lambsquarters [6, 15]: 100
- Plant response rating, Lambsquarters [6, 16]: 100
- Plant response rating (scale of 0 to 100), Lambsquarters ([6]; Preemergence, 31 g ai/ha): 55
- Plant response rating, Lambsquarters [6, 17]: 100
- Plant response rating, Lambsquarters [6, 18]: 100
- Plant response rating, Lambsquarters [6, 19]: 100
- Plant response rating, Lambsquarters [6, 20]: 95
- Deadnettle plant response rating [7, 14]: 15
- Plant response rating, Deadnettle [7, 15]: 35
- Plant response rating, Deadnettle [7, 16]: 40
- Plant response rating (scale of 0 to 100), Deadnettle ([7]; Preemergence, 31 g ai/ha): 15
- Plant response rating, Deadnettle [7, 17]: 40
- Plant response rating, Deadnettle [7, 18]: 55
- Plant response rating, Deadnettle [7, 19]: 55
- Plant response rating, Deadnettle [7, 20]: 15
- Bromegrass, Downy plant response rating [8, 14]: 50
- Plant response rating, Bromegrass, Downy [8, 15]: 65
- Plant response rating, Bromegrass, Downy [8, 16]: 70
- Plant response rating (scale of 0 to 100), Bromegrass, Downy ([8]; Preemergence, 31 g ai/ha): 15
- Plant response rating, Bromegrass, Downy [8, 17]: 60
- Plant response rating, Bromegrass, Downy [8, 18]: 80
- Plant response rating, Bromegrass, Downy [8, 19]: 85
- Plant response rating, Bromegrass, Downy [8, 20]: 60
- Oilseed Rape plant response rating [9, 14]: 0
- Plant response rating, Oilseed Rape [9, 15]: 65
- Plant response rating, Oilseed Rape [9, 16]: 75
- Plant response rating (scale of 0 to 100), Oilseed Rape ([9]; Preemergence, 31 g ai/ha): 35
- Plant response rating, Oilseed Rape [9, 17]: 35
- Plant response rating, Oilseed Rape [9, 18]: 35
- Plant response rating, Oilseed Rape [9, 19]: 35
- Plant response rating, Oilseed Rape [9, 20]: 20
- Wheat, Spring plant response rating [10, 14]: 0
- Plant response rating, Wheat, Spring [10, 15]: 0
- Plant response rating, Wheat, Spring [10, 16]: 5
- Plant response rating (scale of 0 to 100), Wheat, Spring ([10]; Preemergence, 31 g ai/ha): 0
- Plant response rating, Wheat, Spring [10, 17]: 0
- Plant response rating, Wheat, Spring [10, 18]: 5
- Plant response rating, Wheat, Spring [10, 19]: 20
- Plant response rating, Wheat, Spring [10, 20]: 0
- Blackgrass plant response rating [11, 14]: 65
- Plant response rating, Blackgrass [11, 15]: 75
- Plant response rating, Blackgrass [11, 16]: 75
- Plant response rating (scale of 0 to 100), Blackgrass ([11]; Preemergence, 31 g ai/ha): 25
- Plant response rating, Blackgrass [11, 17]: 70
- Plant response rating, Blackgrass [11, 18]: 75
- Plant response rating, Blackgrass [11, 19]: 80
- Plant response rating, Blackgrass [11, 20]: 70
- Chickweed plant response rating [12, 14]: 75
- Plant response rating, Chickweed [12, 15]: 100
- Plant response rating, Chickweed [12, 16]: 100
- Plant response rating (scale of 0 to 100), Chickweed ([12]; Preemergence, 31 g ai/ha): 90
- Plant response rating, Chickweed [12, 17]: 100
- Plant response rating, Chickweed [12, 18]: 100
- Plant response rating, Chickweed [12, 19]: 100
- Plant response rating, Chickweed [12, 20]: 85
- Galium plant response rating [13, 14]: 85
- Plant response rating, Galium [13, 15]: 100
- Plant response rating, Galium [13, 16]: 100
- Plant response rating (scale of 0 to 100), Galium ([13]; Preemergence, 31 g ai/ha): 0
- Plant response rating, Galium [13, 17]: 20
- Plant response rating, Galium [13, 18]: 65
- Plant response rating, Galium [13, 19]: 75
- Plant response rating, Galium [13, 20]: 100

SMILES: Cc1ccc2ccccc2c1-c1c(O)c(Br)nn(C)c1=O [Compound 23]
- Plant response rating, Chamomile [1, 15]: 85
- Plant response rating, Chamomile [1, 16]: 100
- Plant response rating, Chamomile [1, 20]: 85
- Plant response rating, Field Poppy [2, 15]: 100
- Plant response rating, Field Poppy [2, 16]: 100
- Plant response rating, Field Poppy [2, 20]: 100
- Plant response rating, Barley, Spring [3, 15]: 25
- Plant response rating, Barley, Spring [3, 16]: 30
- Plant response rating, Barley, Spring [3, 20]: 15
- Plant response rating, Foxtail, Green [4, 15]: 80
- Plant response rating, Foxtail, Green [4, 16]: 90
- Plant response rating, Foxtail, Green [4, 20]: 75
- Plant response rating, Kochia (kochia (Kochia scoparia); [15]): 75
- Plant response rating, Kochia (kochia (Kochia scoparia); [16]): 80
- Plant response rating, Kochia (kochia (Kochia scoparia); [20]): 75
- Plant response rating, Canarygrass [5, 15]: 85
- Plant response rating, Canarygrass [5, 16]: 90
- Plant response rating, Canarygrass [5, 20]: 75
- Plant response rating, Lambsquarters [6, 15]: 75
- Plant response rating, Lambsquarters [6, 16]: 80
- Plant response rating, Lambsquarters [6, 20]: 75
- Plant response rating, Deadnettle [7, 15]: 75
- Plant response rating, Deadnettle [7, 16]: 85
- Plant response rating, Deadnettle [7, 20]: 65
- Plant response rating, Bromegrass, Downy [8, 15]: 60
- Plant response rating, Bromegrass, Downy [8, 16]: 75
- Plant response rating, Bromegrass, Downy [8, 20]: 45
- Plant response rating, Oilseed Rape [9, 15]: 65
- Plant response rating, Oilseed Rape [9, 16]: 85
- Plant response rating, Oilseed Rape [9, 20]: 60
- Plant response rating, Wheat, Spring [10, 15]: 60
- Plant response rating, Wheat, Spring [10, 16]: 60
- Plant response rating, Wheat, Spring [10, 20]: 50
- Plant response rating, Blackgrass [11, 15]: 75
- Plant response rating, Blackgrass [11, 16]: 80
- Plant response rating, Blackgrass [11, 20]: 70
- Plant response rating, Chickweed [12, 15]: 100
- Plant response rating, Chickweed [12, 16]: 100
- Plant response rating, Chickweed [12, 20]: 100
- Plant response rating, Galium [13, 15]: 100
- Plant response rating, Galium [13, 16]: 100
- Plant response rating, Galium [13, 20]: 100
